Structures are written as SMILES.

What all share (test): AFM cell thickness, stiffness and roughness
Type in all cases: cell-based

The test system of one assay is Enterococcus faecalis. Particulars: plectasin 4 x MIC, CASPON-plectasin same molar quantity, mean ± SD of 20 measurements; for Stiffness: AFM force spectroscopy, untreated 8.0 ± 3.7. The method, then: (§1) All AFM measurements were performed on a Vecoo-Bruker AFM (Diamond, Chilton, UK), including imaging and force distance measurement. Before and after measurements, the triangular cantilever was cleaned with EtOH and acetone. Sensitivity and the spring constant were calibrated by the thermal tune method by making use of the equipartition theorem, preceded by continued ramping. After calibration, the spring constant was set to 0.4017 N/m for performing measurements.
(§2) Bacterial suspensions were prepared by taking bacterial colonies out of overnight grown agar plates and resuspending them in MHB. The suspension was set to an OD625 extinction of 0.15–0.20 corresponding to a bacterial cell density of approximately 2 × 10^8 CFU/mL. Then, 3 × 1 mL of suspension was transferred into a 2-mL reaction tube and mixed with either plectasin, CASPON-plectasin, or PBS buffer to obtain volume conditions. The concentration for plectasin was 4 x MIC, and CASPON-plectasin was of the same molar quantity as plectasin. After incubation, the bacterial suspensions were washed with PBS three times, using mild centrifugation conditions for each wash cycle (3,000 g, 15 minutes) to avoid cell damage. The washed bacterial suspension was transferred to borosilicate glass slides (24 mm diameter, 0.1 mm thickness, Menzel Gläser, Braunschweig, Germany) and left to adhere to the surface (electrostatics) for 1 hour. Afterward, the slides were washed with MilliQ water and transferred to AFM.
(§3) Bacterial images were visualized by square areas of 2 × 2 µm^2 up to 25 × 25 µm^2 with a resolution of 512 × 512 pixels. At least 15 images were taken per sample with different square dimensions for proper visualization. Surface roughness and shapes of the bacterial cell were estimated using Gwyddion software after applying a mean filter to the raw images. A total of 20 measurements were taken on cells for each parameter, providing enough values for statistical evaluation. For additional information and an illustration of the determination principle, please refer to the supplementary material (Fig. S3), which includes an example on S. aureus. By using the following equations, the surface roughness of a selected area of this flattened area was calculated from the standard deviation in the height image. The mean roughness (Ra) and the root-mean-square roughness (Rq or RMS) were used to characterize the surface of different samples:
(§4) After the position of the bacteria was determined, force spectroscopy was performed. Measurement of the central region of bacteria was performed with an approach speed of 10 µm/s and a maximum force of 2 nN. A curve length of 1 µm and a sampling rate of 2 kHz were used. At least 20 bacteria per sample were measured. Analysis of the force distance curves was performed using the software NanoScope Analysis 1.5. For calculating the stiffness of each bacterial cell, the following question was utilized:
(§5) where keff is the effective stiffness (received from the slope of the measured curve), ksample is the stiffness of the sample (bacterial cell), and kspring is the spring constant (0.4017 N/m). All constants have the unit N/m. Rearrangement of the formula leads to the following relation: […]
(§6) Measurements were pooled, and properties were calculated as described above. For each parameter, 20 measurements were used to obtain appropriate statistical values. Analysis of variance (ANOVA) was performed, followed by Student’s t-test, which is a statistical procedure that compares the averages of two independent groups (plectasin/CASPON-plectasin treated vs untreated) to determine significance in the surface roughness and stiffness of bacteria. Significances are indicated in figures and reported as “ns” for P > 0.05, “*” for P ≤ 0.05, “**” for P ≤ 0.01, and “***” for P ≤ 0.001.

A further assay has as its system Listeria monocytogenes. Particulars: plectasin 4 x MIC, CASPON-plectasin same molar quantity, mean ± SD of 20 measurements; for Stiffness: AFM force spectroscopy, untreated 5.4 ± 3.1. The method, then: as §1, §2, §3, §4, §5, §6
The next assay deals with Staphylococcus aureus. Particulars: plectasin 4 x MIC, CASPON-plectasin same molar quantity, mean ± SD of 20 measurements; for Stiffness: AFM force spectroscopy, untreated 5.3 ± 2.3. The method, then: as §1, §2, §3, §4, §5, §6
Another assay relates to Streptococcus pneumoniae. Particulars: plectasin 4 x MIC, CASPON-plectasin same molar quantity, mean ± SD of 20 measurements; for Stiffness: AFM force spectroscopy, untreated 6.2 ± 2.4. Here is the method: as §1, §2, §3, §4, §5, §6

In the case of `CC[C@H](C)[C@@H]1NC(=O)[C@H](CO)NC(=O)[C@H](CCCCN)NC(=O)[C@@H]2CSSC[C@@H](C(=O)N[C@@H](Cc3ccc(O)cc3)C(=O)O)NC(=O)[C@H](CCCCN)NC(=O)[C@@H]3CSSC[C@H](NC(=O)[C@H](CCC(N)=O)NC(=O)[C@H](CCSC)NC(=O)[C@H](CC(=O)O)NC(=O)[C@H](CC(=O)O)NC(=O)[C@H](CCC(=O)O)NC(=O)[C@H](CC(=O)O)NC(=O)[C@H](Cc4c[nH]c5ccccc45)NC(=O)[C@@H]4CCCN4C(=O)CNC(=O)[C@H](CC(N)=O)NC(=O)[C@@H](NC(=O)CNC(=O)[C@H](Cc4ccccc4)NC(=O)CN)CSSC[C@H](NC(=O)[C@H](Cc4ccc(O)cc4)NC(=O)CNC(=O)CNC(=O)[C@H](CCCCN)NC(=O)[C@H](Cc4ccc(O)cc4)NC(=O)CNC(=O)[C@H](CCCCN)NC1=O)C(=O)N[C@@H](C)C(=O)N[C@@H](CCCCN)C(=O)NCC(=O)NCC(=O)N[C@@H](Cc1ccccc1)C(=O)N[C@@H](C(C)C)C(=O)N3)C(=O)N[C@@H](Cc1c[nH]cn1)C(=O)N[C@@H](CC(N)=O)C(=O)N[C@@H](Cc1c[nH]cn1)C(=O)N2` [Plectasin, plectasin], the Stiffness result with Enterococcus faecalis is “approximately 4 N/m”; in the assay on Enterococcus faecalis (SD), 4.6 ± 1.9 N/m; in the assay on Listeria monocytogenes, “approximately 4 N/m”; in the assay on Listeria monocytogenes (SD) it was 3.5 ± 1.4 N/m; in the assay with Staphylococcus aureus, “approximately 4 N/m”; in the assay on Staphylococcus aureus (SD), 3.7 ± 1.7 N/m. Moreover, the Stiffness entry with Streptococcus pneumoniae was “approximately 4 N/m”; with Streptococcus pneumoniae (SD) it was 4.7 ± 1.1 N/m. Also, the “Ra (mean roughness)” value is recorded as 19.4 ± 3.2 nm in the assay with Enterococcus faecalis (AFM, untreated 10.0 ± 2.5, SD); 13.5 ± 2.4 nm in the assay on Listeria monocytogenes (AFM, untreated 8.1 ± 2.5, SD); 24.76 ± 6.7 nm with Staphylococcus aureus (AFM, untreated 19.4 ± 3.5, SD); 19.7 ± 5.3 nm in the assay with Streptococcus pneumoniae (AFM, untreated 15.5 ± 4.2, SD). The “Rq (root-mean-square roughness)” value with Enterococcus faecalis (AFM, untreated 12.2 ± 3.4, SD) is listed as 23.5 ± 3.4 nm; in the assay on Listeria monocytogenes (AFM, untreated 11.2 ± 3.4, SD), 16.9 ± 2.8 nm; in the assay with Staphylococcus aureus (AFM, untreated 24.0 ± 4.4, SD), 30.9 ± 8.0 nm; with Streptococcus pneumoniae (AFM, untreated 18.8 ± 4.8, SD), 24.5 ± 6.0 nm. Further, the Cell thickness in the assay on Enterococcus faecalis (AFM, untreated 480.3 ± 30.6, SD) amounted to 473.5 ± 47.5 nm; in the assay with Listeria monocytogenes (AFM, untreated 297.0 ± 13.3, SD) it was 297.8 ± 14.0 nm; with Staphylococcus aureus (AFM, untreated 485.9 ± 26.5, SD), 467.2 ± 45.1 nm; in the assay on Streptococcus pneumoniae (AFM, untreated 375.8 ± 28.4, SD), 366.0 ± 54.1 nm.

The values above are taken from PMC12096834, “Antimicrobial peptide plectasin recombinantly produced in Escherichia coli disintegrates cell walls of gram-positive bacteria, as proven by transmission electron and atomic force microscopy” (Journal of Bacteriology, 2025).
